Among the test systems are SNB-78 CNS; DMS 114 small cell lung; DLD-1 colon; LXFL 529 NSCLC; PC-3 prostate; MCF7 breast; T-47D breast; MDA-MB-231 breast; MDA-MB-435; BT-549 breast.
What all share (assay): DTP human tumour cell line panel, 48 h

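Following 48 hours of exposure in 96-well plates, responses at five concentrations were used to interpolate endpoints linearly. GI50: concentration for 50% inhibition of growth. At the TGI there is no net growth.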

As to `CC(=O)NNc1ncc(C(=O)/C=C/c2ccccc2C)s1`, the concentration for total growth inhibition (TGI) in the experiment on SNB-78 CNS, with DMS 114 small cell lung and with DLD-1 colon was above 100 µM each time.
Turning to `OCC1CC2C=CCC(C2)C1` (configuration not stated), the TGI in the experiment with SNB-78 CNS, in the experiment on DMS 114 small cell lung, in the experiment with DLD-1 colon and with LXFL 529 NSCLC was above 100 µM throughout.
As for `O=[N+]([O-])c1cc(I)cc(/C=N/NS(=O)(=O)c2ccc(F)cc2)c1O`, the TGI (commonly the concentration giving total growth inhibition) in the experiment on SNB-78 CNS is 69 µM; with DMS 114 small cell lung, 52.2 µM; with DLD-1 colon, above 100 µM; with LXFL 529 NSCLC, 43.1 µM.
Turning to `COC(=O)C(/C(=N/N)C(=O)Nc1cc(Cl)ccc1Cl)c1nc2ccc([N+](=O)[O-])cc2[nH]c1=O` (configuration not stated), the TGI in the experiment with SNB-78 CNS, in the experiment with DMS 114 small cell lung and in the experiment with LXFL 529 NSCLC was above 100 µM each time.
Regarding `CSc1ccc(Cc2cc(C(C)(C)C)cc(C(C)(C)C)c2O)cc1`, the TGI in the experiment on SNB-78 CNS came to 28.8 µM; with DMS 114 small cell lung, 25.7 µM; in the experiment on DLD-1 colon it was 27.1 µM; with LXFL 529 NSCLC it was 26.9 µM.
On to `O=C(N/C(=C\c1cccc([N+](=O)[O-])c1)c1nc2c3c(ccc2[nH]1)C(=O)c1ccccc1C3=O)c1ccccc1`, for which the TGI with SNB-78 CNS, with DMS 114 small cell lung, with DLD-1 colon and in the experiment on LXFL 529 NSCLC was above 100 µM throughout.
Regarding `OC(c1cc2ccccc2[nH]1)C(O)(c1cc2ccccc2[nH]1)c1cc2ccccc2[nH]1` (configuration not stated), the TGI in the experiment with DMS 114 small cell lung came out at 29 µM; with DLD-1 colon, 48 µM; with LXFL 529 NSCLC it was 40.2 µM.
In the case of `CON1C(=O)C2(CCCCC2)C(=O)C12C=CC(C)CC2` (configuration not stated), the TGI in the experiment on SNB-78 CNS, with DMS 114 small cell lung and in the experiment with LXFL 529 NSCLC was above 100 µM in each case.
As for `COC(=O)CCCCCOS(=O)(=O)c1ccc(C)cc1`, the TGI in the experiment with SNB-78 CNS, in the experiment with DMS 114 small cell lung, in the experiment with DLD-1 colon and in the experiment on LXFL 529 NSCLC was above 100 µM in each case.
For `CC1=NC(C)=C(/C(C)=N/NC(=O)c2ccccc2O)C(C)/C1=C(/C)NNC(=O)c1ccccc1O` (configuration not stated), the TGI with SNB-78 CNS was above 100 µM; with DMS 114 small cell lung it was 44.1 µM; in the experiment with DLD-1 colon, above 100 µM; in the experiment with LXFL 529 NSCLC, above 100 µM.
Take `C=CCN=C1NC(=O)C(CC(=O)Nc2cccc(Cl)c2)S1` (configuration not stated): the TGI in the experiment on DMS 114 small cell lung, in the experiment with DLD-1 colon and in the experiment on LXFL 529 NSCLC was above 100 µM in each case.
As to `Cn1cnc(SC2=CC(=O)C=C3S[C@H]4C[C@@]23c2c(c(O)c3c5c2=NCCC=5C=N3)N4)c1CC(N)C(=O)O` (some centres not stated), the GI50 (in general, the concentration at which growth is held to half of that of the control) was 13.4 µM with PC-3 prostate; 15.3 µM in the experiment with SNB-78 CNS; 12.6 µM with DLD-1 colon; 20.2 µM in the experiment with T-47D breast; 6.6 µM in the experiment on MDA-MB-231 breast; 1.88 µM with MDA-MB-435. The TGI in the experiment on PC-3 prostate worked out at 51.8 µM; in the experiment on MCF7 breast, 11.5 µM; in the experiment on SNB-78 CNS it was 38.4 µM; with DMS 114 small cell lung it was 4.31 µM; with DLD-1 colon it was 26.3 µM; in the experiment with T-47D breast, 38.3 µM. In addition, the TGI in the experiment with MDA-MB-231 breast was 20.3 µM; with MDA-MB-435 it was 3.44 µM.
Take `CC(=O)N(N=O)c1ccc(N(N=O)C(C)=O)cc1`: the TGI in the experiment on SNB-78 CNS, in the experiment with DMS 114 small cell lung, in the experiment with DLD-1 colon and in the experiment on LXFL 529 NSCLC was above 100 µM in each case.
For the compound `O=C(O)C(Cc1ccccc1)N=Cc1nc(-c2ccccc2)oc1O` (configuration not stated), the TGI with SNB-78 CNS, with DLD-1 colon and with LXFL 529 NSCLC was above 100 µM in each case.
As to `CC1CCCc2c1n[nH]c2CC1CC(=O)NC(=O)C1` (configuration not stated), the TGI in the experiment with SNB-78 CNS, in the experiment with DMS 114 small cell lung, in the experiment with DLD-1 colon and with LXFL 529 NSCLC was above 100 µM each time.
Consider `O=C(NC1CCCCC1)NC12CC3CC(CC(F)(C3)C1)C2`, for which the TGI in the experiment on SNB-78 CNS, in the experiment on DMS 114 small cell lung, in the experiment with DLD-1 colon and in the experiment with LXFL 529 NSCLC was above 100 µM each time.
As to `CCCCCCCCCCNC(=S)OC`, the TGI was above 100 µM in the experiment on SNB-78 CNS, 44.9 µM in the experiment on DMS 114 small cell lung, above 100 µM in the experiment on DLD-1 colon and above 100 µM in the experiment on LXFL 529 NSCLC.
Turning to `C=CCC1(CN(C)C)CC/C(=C\c2cc(OC)c(OC)c(OC)c2)C1=O` (configuration not stated), the TGI is above 100 µM in the experiment on SNB-78 CNS, 39.5 µM in the experiment on DMS 114 small cell lung, 38.5 µM in the experiment on DLD-1 colon and 35.2 µM in the experiment with LXFL 529 NSCLC.
For `Oc1ccc(O)c(-n2cccn2)c1`, in that order: above 100 µM, 89.7 µM, above 100 µM and 38.9 µM.
As to `Cn1nc(-c2ccccc2)c2c(/C=C/c3ccc(F)cc3)onc2c1=O`, the TGI in the experiment with DLD-1 colon and in the experiment on LXFL 529 NSCLC was above 100 µM in each case.
With `C[N+]1(CCNP(=S)(NCC[N+]2(C)Cc3c(ccc4c3OCO4)C3C2c2cc4c(cc2C[C@@H]3O)OCO4)NCC[N+]2(C)Cc3c(ccc4c3OCO4)C3C2c2cc4c(cc2C[C@@H]3O)OCO4)Cc2c(ccc3c2OCO3)C2C1c1cc3c(cc1C[C@H]2O)OCO3` (some centres not stated), the GI50 with SNB-78 CNS is 2.7 µM; in the experiment with DLD-1 colon, 1.68 µM; with LXFL 529 NSCLC it was 2.75 µM.
`CCCCNC(=O)Oc1ccc(/C(=C(\C)c2ccc(OC)cc2)c2ccc(OCCN3CCCCC3)cc2)cc1`: the GI50 was 2.35 µM with PC-3 prostate; 0.0721 µM with MCF7 breast; 1.48 µM in the experiment on BT-549 breast; 1.24 µM with T-47D breast; 2.08 µM in the experiment on MDA-MB-231 breast; 1.78 µM with MDA-MB-435. For the same compound, the TGI stood at 7.03 µM with PC-3 prostate; 3.99 µM in the experiment with MCF7 breast; 2.89 µM in the experiment with BT-549 breast; 6.37 µM with T-47D breast; 3.83 µM in the experiment on MDA-MB-231 breast; 3.67 µM in the experiment on MDA-MB-435.
As for `Cc1ccc([N+](=O)[O-])cc1NC(=O)C(=O)Cc1nc2ccc(C(=O)c3ccccc3)cc2[nH]c1=O`, the TGI in the experiment with DMS 114 small cell lung, in the experiment with DLD-1 colon and in the experiment with LXFL 529 NSCLC was above 100 µM throughout.
On to `[Mn+3].[O-][Cl+3]([O-])([O-])O.[O-]c1ccccc1C=NCCN1CC1.[O-]c1ccccc1C=NCCN1CC1`, for which the GI50 in the experiment on PC-3 prostate was 19.9 µM; with MCF7 breast, 26.7 µM; in the experiment on BT-549 breast it was 19.4 µM; in the experiment on T-47D breast it was 20.3 µM; with MDA-MB-231 breast, 20.9 µM; in the experiment on MDA-MB-435 it was 37 µM. The TGI is above 100 µM in the experiment on PC-3 prostate; above 100 µM in the experiment with MCF7 breast; 50.8 µM with BT-549 breast; above 100 µM with T-47D breast; above 100 µM with MDA-MB-231 breast; above 100 µM in the experiment on MDA-MB-435.

(Values after PubChem BioAssay (NCI).)
